Results: patent US4003945A, “Novel cyclopropanecarboxylates” (Sumitomo Chemical Company, Limited, priority 1973, dated 1977)
Converted amounts (≈) assume the structure as drawn. Read-outs that look alike come from different tables or passages of the source.

Columns and labels:
[1] = test system: Full grown larvae of the Northern house mosquito; experiment: Larvicidal test in beaker with diluted emulsifiable concentrate (Example XIX); type: in vivo; details: Table 5; after 24 hours
Protocol: 30 Full grown larvae of the Northern house mosquito were released into the beaker with 200 ml of dilution of each emulsifiable concentrates which obtained in Example X.

[2] = Oral acute toxicity in male mice (Example XXI); details: mouse, in vivo, Table 7, male mice of about 20 g
Description: An emulsion prepared by diluting with water the present compounds 31, 32, 33, 34, 35, 46, 63, in the form of an emulsifiable concentrate was orally administrated to male mice of about 20 g in body weight.

[3] = test system: housefly adults; experiment: Oil spray, Campbel's turn table, lethal concentration (Test Example 2); type: in vivo; details: Musca domestica, 24 h
Protocol: A group of about 100 housefly adults was exposed to descending spray for 10 minutes, thereafter was transferred to an observation cage, was fed, and was allowed to stand at room temperature.
After a day, the dead and alive were counted to calculate the lethal ratio.

[4] = test system: 3rd or 4th instar larvae of tobacco cut worm; experiment: Diluted emulsion sprayed by settling tower on larvae (Example X); type: in vivo; details: emulsion diluted to 50 times, 1 ml
Protocol: Ten of the 3rd or 4th instar larvae of tobacco cut worm were put into a petri dish of 17 cm in diameter.
One ml of the present compound (4, 11, 28, 92, 94, 95, 109, 111) in form of an emulsion obtained in Example X, which were diluted to 50 times with water, were sprayed by means of a settling tower. The said larvae were removed into another petri dish with the leaves of the chinese cabbage leaves. Observation was made after 48 hrs. As a result, more than 90% of the larvae were dead in each case.

[5] = test system: adults of houseflies; experiment: Oil preparation sprayed on Campbell's turn table (Example XX); type: in vivo, housefly; details: Musca domestica, 24 h; Table 6; 1% oil preparation 5 ml, 10 minutes exposure, next day
Protocol: The oil preparation obtained as in Example B (5 ml) was sprayed by the use of a Campbell's turn table [Soap & Sanitary Chemicals, Vol. 14, No. 6, 119 (1938) ] on 100 adults of houseflies were exposed to the spray for 10 minutes. The houseflies were then allowed to stand with feeding. On the next day, dead and alive were observed.

[6] = test system: larvae of tobacco cut worm, diamondback moth and common cabbage worms; experiment: Fumigation of Chinese cabbages in vinyl house with heated wettable powder (Example XIV); type: in vivo; details: 10 grams of 40% wettable powder per 30 m^2 compartment
Description: In the vinyl house, the Chinese cabbages were cultivated and the leaves were parasitized with the larvae of tobacco cut worm, diamondback moth and common cabbage worms.
The vinyl house (its height was 2 m) was divided into compartments of 30 m^2 in area and 10 grams of the present compound (1, 4) in the form of 40% wettable powder was put into the plate heated by fire.

[7] = test system: adult leafhoppers; experiment: Granule applied to rice plants in Wagner pot (Example XIII); type: in vivo, leafhopper; details: granule of Example W, 10 kg/10 ares
Protocol: Rice plants at the tillering stage were grown in Wagner pots, and the depth of water was kept at 5 cm.
The present compound (4) obtained in Example W was put into the Wagner pot with 10 kg/10 ares, and the said pot was covered with a wire cage into which 20 adult leafhoppers were released.

[8] = test system: leafhoppers of resistant and susceptible strains; experiment: Emulsion sprayed on rice seedlings, leafhoppers released (Example XVI); type: in vivo, leafhopper; details: emulsion diluted to 50 times
Protocol: About 20 rice seedlings, cultivated for 20 days after sowing in a flower pot of 8.5 cm in diameter were sprayed with each of the present compounds (31, 32, 35, 39, 40, 42, 45, 48, 55, 59, 60, 63, 131 - 134, 139) in the form of an emulsion which were diluted to 50 times. Each pot was put into the beaker and covered with gauze, into which leafhoppers of resistant and susceptible strains, respectively, were released in each beaker. And the number of knocked down insects after 1 hour and the mortality after 24 hours were counted. As a result, the knock down per centage was more than 50% and the mortality was more than 80% in each case.

[9] = test system: tobacco cut worm; experiment: Dust on Chinese cabbages in the field (Example XVIII); type: in vivo; details: 5% dust, 3kg/10 ares, for 2 months
Description: Each 5% dust of the present compounds 31, 32, 62, 63 was spread in a ratio of 3kg/10 ares on the Chinese cabbages of 40 days after sowing in the field. And about 9,000 eggs of tobacco cut worm were put on the leaves of the Chinese cabbages per 10 ares every 5 days for a month.

[10] = test system: adult planthoppers; experiment: Residual effect on sprayed rice seedlings (Example XV); type: in vivo; details: concentrate diluted to 400 times; observed 24 hours after release
Protocol: About 20 rice seedlings, cultivated for 20 days after sowing in a flower pot of 8.5 cm in diameter, were sprayed with each of the emulsifiable concentrates obtained as in Example X which were diluted to 400 times with water. After air-drying, each pot was covered with a wire cage, into which 20 adult planthoppers were released as time elapsed. And the observation was made after 24 hours.

[11] = Table 3a, oil spray 5 ml, 10 minutes exposure, counted after a day, read-out: LC50

| SMILES | LC50 [1] | LD50 at 48 h [2] | mortality at 1 % [5] | knock down percentage after 1 hour [8] | mortality after 24 hours [8] | also measured |
| --- | --- | --- | --- | --- | --- | --- |
| C#CC(OC(=O)C1C(C=C(C)C)C1(C)C)C(C)=Cc1ccccc1Cl (stereo not drawn) [Compound 34, α-Ethynyl-β-methyl-2-chlorocinnamyl chrysanthemate] | 0.14 ppm | > 600 mg/kg |  |  |  |  |
| C#CC(OC(=O)C1C(C=C(C)C)C1(C)C)C(C)=Cc1ccc(C)cc1 (stereo not drawn) [Compound 33, α-Ethynyl-β-methyl-4-methylcinnamyl chrysanthemate] | 0.34 ppm | > 600 mg/kg |  |  |  |  |
| C#CC(OC(=O)C1C(C=C2CCCC2)C1(C)C)C(C)=CCC1=CCCC1 (centres unmarked) [Compound 111, 1-Ethynyl-2-methyl-4-(1'-cyclopentenyl)-2-butenyl 2",2"- dimethyl-3"-cyclopentylidene-methylcyclopropanecarboxylate] |  |  |  |  |  | LC50 [3, 11]: 410 µg/mL (≈ 1.16 mM); larvae dead after 48 hrs [4]: more than 90% |
| C#CC(C=C(c1ccccc1)c1ccccc1)OC(=O)C1C(C=C(Cl)Cl)C1(C)C (centres unmarked) [Compound 138] |  |  | 100% |  |  |  |
| C#CC(OC(=O)C1C(C=C(C)C)C1(C)C)C(C)=CCC (centres unmarked) [Compound 4, 1-Ethynyl-2-methyl-2-pentenyl chrysanthemate] |  |  |  |  |  | increasing of the damage [6]: the increasing of the damage was not found; LC50 [3]: 1400 µg/mL (≈ 5.1 mM); larvae dead after 48 hrs [4]: more than 90%; leafhoppers dead after 24 hrs [7]: more than 90% |
| C#CC(OC(=O)C1C(C=C(Cl)Cl)C1(C)C)C(C)=Cc1ccc2c(c1)OCO2 (stereo not drawn) [Compound 139, α-Ethynyl-β-methyl-3,4-methylenedioxy-cinnamyl 2',2'-dimethyl-3'-(2",2"-dichlorovinyl)-cyclopropanecarboxylate] |  |  | 95% | more than 50% | more than 80% |  |
| C#CC(C=CCc1ccccc1)OC(=O)C1C(C=C(C)C)C1(C)C (stereo not drawn) [Compound 62, α-Ethynyl-γ-benzylallyl chrysanthemate] | 0.034 ppm |  | 93% |  |  | damage of the Chinese cabbages by tobacco cut worms [9]: the damage of the Chinese cabbages by tobacco cut worms was not found; Mortality (%) After 1 day [10]: 100%; Mortality (%) After 6 days [10]: 100% |
| C#CC(C=CC)OC(=O)C1C(C=C(C)C)C1(C)C (centres unmarked) [Compound 1, 1-Ethynyl-2-butenyl chrysanthemate] |  |  |  |  |  | increasing of the damage [6]: the increasing of the damage was not found; LC50 [3]: 5500 µg/mL (≈ 22.3 mM) |
| C#CC(OC(=O)C1C(C=C(C)C)C1(C)C)C(=CC1=CCCC1)CC (centres unmarked) [Compound 109, 1-Ethynyl-2-ethyl-3-(1'-cyclopentenyl)allyl chrysanthemate] |  |  |  |  |  | LC50 [3, 11]: 340 µg/mL (≈ 1.04 mM); larvae dead after 48 hrs [4]: more than 90% |
| C#CC(OC(=O)C1C(C=C(Cl)Cl)C1(C)C)C(C)=Cc1ccc(C#N)cc1 (centres unmarked) [Compound 137] |  |  | 100% |  |  |  |
| C#CC(C=Cc1ccccc1)OC(=O)C1C(C=C(C)C)C1(C)C (stereo not drawn) [Compound 31, α-Ethynylcinnamyl chrysanthemate] | 0.12 ppm | > 500 mg/kg | 92% | more than 50% | more than 80% | damage of the Chinese cabbages by tobacco cut worms [9]: the damage of the Chinese cabbages by tobacco cut worms was not found; Mortality (%) After 1 day [10]: 100%; Mortality (%) After 6 days [10]: 75.8% |
| C#CC(OC(=O)C1C(C=C(Cl)Cl)C1(C)C)C(C)=Cc1c(C)cc(OC)cc1C (stereo not drawn) [Compound 136, α-Ethynyl-β-methyl-2,6- -dimethyl-4-methoxy cinnamyl 2',2'-dimethyl-3'2"-2"- dichlorovinyl)-cyclopropane-carboxylate] |  |  | 90% |  |  |  |
| C#CC(OC(=O)C1C(C=C(C)C)C1(C)C)C(C)=Cc1ccc2c(c1)OCO2 (stereo not drawn) [Compound 35, α-Ethynyl-β-methyl-3,4-methylenedioxycinnamyl chrysanthemate] |  | > 600 mg/kg |  | more than 50% | more than 80% |  |
| C#CC(OC(=O)C1C(C=C(C)C)C1(C)C)C(=Cc1ccccc1)CC (stereo not drawn) [Compound 63, α-Ethynyl-β-ethylcinnamyl chrysanthemate] | 0.14 ppm | > 600 mg/kg | 95% | more than 50% | more than 80% | damage of the Chinese cabbages by tobacco cut worms [9]: the damage of the Chinese cabbages by tobacco cut worms was not found; Mortality (%) After 1 day [10]: 100%; Mortality (%) After 6 days [10]: 53.3% |
| C#CC(OC(=O)C1C(C=C(C)C)C1(C)C)C(C)=Cc1ccc(C(C)C)cc1 (stereo not drawn) [Compound 46, α-Ethynyl-β-methyl-4-iso-propylcinnamyl chrysanthemate] |  | > 600 mg/kg |  |  |  |  |
| C#CC(OC(=O)C1C(C=C(C)C)C1(C)C)C(C)=Cc1ccccc1 (stereo not drawn) [Compound 32, α-Ethynyl-β-methylcinnamyl chrysanthemate] | 0.069 ppm | > 500 mg/kg | 96% | more than 50% | more than 80% | damage of the Chinese cabbages by tobacco cut worms [9]: the damage of the Chinese cabbages by tobacco cut worms was not found; Mortality (%) After 1 day [10]: 100%; Mortality (%) After 6 days [10]: 100% |
